Assays:
A2780 cells [1] = test: In vitro PDT efficacy, MTT assay after visible light irradiation; format: cell-based, human
Method: A2780 cells (human ovarian cancer cell line) and MCF-7 cells (human breast adenocarcinoma cell line) obtained from Sigma-Aldrich and American Type Culture Collection (ATCC, Rockville, MD, USA), respectively were utilized for cell culture experiments. These cells were cultured in Dulbecco's Modified Eagle's Medium (DMEM) supplemented with 10% fetal bovine serum (FBS), penicillin (100 IU/mL) and streptomycin (100 μg/mL) at 37° C. in the presence of air (95%) and CO2 (5%).
A2780 or MCF-7 cells (2×10^5 cells/mL, 100 μL) were seeded in each well of a black 96-well plate. Stock solution of ExBox^4+⊃DPP in PBS (1 mM, 10 μL) was added to each well to achieve working concentrations and incubated for 12 h. After incubation, wells were washed with PBS, added with 100 μL of DMEM and immediately irradiated with visible light using Max-303 Xenon Light Source (385-740 nm, Asahi Spectra) at different light intensities (5-50 mW) for 1 to 15 min. Following irradiation, cells were incubated overnight and then added with MTT (5 mg/mL in PBS, 10 μL). After 4 h incubation with MTT, media from each well was pipetted out, formazan crystals deposited on the plate were dissolved in 200 μL of Me2SO, and the absorbance of each well was measured using a microplate reader at 560 nm. All the samples were analyzed in quadruplicates.
The percentage cell viability was calculated using the following formula: % cell viability=(OD of treated sample/OD of untreated sample)*100.

A2780 cells [2] = test: Annexin V FITC/7-AAD apoptosis assay; format: cell-based; details: for intact cells: dark conditions
Method: A2780 cells (5×10^5 cells/mL, 100 μL) were seeded in each well of a Black 96-well plate and incubated with 5 or 10 μM PBS solution of ExBox^4+⊃DPP for 12 h. After incubation, cells were washed with 1×PBS, added with 100 μL of DMEM and immediately irradiated with visible light using Max-303 Xenon Light Source (385-740 nm, Asahi Spectra) at 25 and 50 mW light intensities for 10 min. After irradiation, cells were incubated for an additional 3 h prior to being trypsinized and recovered for annexin V staining. 50 μL of Annexin V solution (1:50 FITC Annexin V in Annexin V staining buffer) was added to cells and was incubated at room temperature for 20 min. 500 μL of 1×PBS was then added to cells, which were centrifuged at 400 ref for 5 min, and the supernatant was discarded. Cells were resuspended in 100 μL of 1:20 7-AAD in cell staining buffer and were incubated for 10 min prior to analysis on a BD Fortessa flow cytometer. Cells were first gated for singlet events using FSC-A vs. FSC-H, after which debris was excluded used FSC-A vs. SSC-A. All remaining events were gated as live, dead, or apoptotic based on annexin V staining vs. 7-AAD staining, with dead cells staining 7-AAD+, live cells staining as 7-AAD- and annexin-V-, and apoptotic cells staining 7-AAD-annexin-V+. Cells without irradiation were used as controls.

With `C1=Cc2nc1cc1ccc([nH]1)c(-c1ccccc1)c1nc(cc3ccc([nH]3)c2-c2ccccc2)C=C1.c1cc2ccc1C[n+]1ccc(cc1)-c1ccc(cc1)-c1cc[n+](cc1)Cc1ccc(cc1)C[n+]1ccc(cc1)-c1ccc(cc1)-c1cc[n+](cc1)C2` [ExBox^4+⊃DPP] the “killing of A2780 cells” value (A2780 cells [1]; 10 μM, 10 min visible light irradiation, 0.078 and 0.156 J cm^−2) was over 95%, the “irradiation time to kill >90% A2780 cells” value (A2780 cells [1]; 0.078 J cm^−2 light dose, 5 μM) was 10 min and the “killing of A2780 cells at other concentrations” value (A2780 cells [1]; 0.1, 0.05 and 0.01 μM, 10 min irradiation, 0.078 and 0.156 J cm^−2) was “less efficient”. For the same compound, the “irradiation time to kill >90% of cells” value (A2780 cells [1]; 0.156 J cm^−2 light dose, 10 μM) was 2 min, the “effect on cell viability (MTT)” value (A2780 cells [1]; 1.25 and 0.625 μM, light doses 0.078 and 0.156 J cm^−2) was “almost no effect on cell viability” and the “A2780 cell-death (MTT)” value (A2780 cells [1]; 2.5, 5 and 10 μM, light doses 0.078 and 0.156 J cm^−2) was over 90%. The “efficacy at light dose 0.032 J cm^−2 (MTT)” value (A2780 cells [1]; light dose 0.032 J cm^−2) was “efficacious only at 5 and 10 μM concentrations”, the “effect on cell viability (MTT)” value (A2780 cells [1]; light dose, same concentrations) was “no effect on cell viability” and the intact cells (A2780 cells [2]; 5 μM) was 79%. The apoptotic cells (A2780 cells [2]; 10 μM versus 5 μM, 0.078 or 0.156 Jcm^−2 light dose, 3 h post irradiation) was “a smaller number of apoptotic cells” and the intact cells (A2780 cells [2]; 10 μM) was 72%.

From US12433870B2, “Supramolecular photoprotection of a photosensitizer” (Northwestern University, priority 2019, dated 2025)
